Source: ChEMBL document CHEMBL1158994, “Methylpendolmycin, an indolactam from a Nocardiopsis sp” (J Nat Prod, 1991)
Converted amounts (≈) assume the structure as drawn.

Target: Protein kinase C (PKC)
Assay: Displacement of radiolabeled PDBU from PKC in rat forebrain
Assay type: tissue-based

`C=CC(C)(C)c1ccc2c3c(c[nH]c13)C[C@@H](CO)NC(=O)[C@H]([C@@H](C)CC)N2C` [METHYLPENDOLMYCIN] showed an IC50 of 0.0135 µg/mL (≈ 0.0352 µM).

`CCCCCCCCCCCCCC(=O)O[C@@H]1[C@@H](C)[C@@]2(O)[C@@H](C=C(CO)C[C@]3(OC)C(=O)C(C)=C[C@@H]23)[C@@H]2C(C)(C)[C@]12OC(C)=O` was tested, and the Ki was 500 nM.
